Patent publication US10279023B2, “Mucin-associated surface protein as a vaccine against chagas disease” (BOARD OF REGENTS, THE UNIVERSITY OF TEXAS SYSTEM, priority 2013, dated 2019)

What was measured:
[1] = test system: IL-4, IL-10, IL-12, IL-17A, and IFN-gamma; experiment: Evaluation of cytokines (Mouse Inflammatory Cytokines Multi-analyte ELISArray) in immunized, challenged mice; format: in vivo; conditions: without the aid of any additional adjuvants
Experimental: (§1) C3H/HeNsd female mice (6-8 weeks old) were separated in five groups (4 mice/group). The immunizations were performed via intraperitoneal (i.p.) injection. One control group was immunized with phosphate buffer saline (PBS, placebo). Two control groups for the adjuvants were given 0.9% aluminum hydroxide (AIOH) and KLH at 10 μg/mouse. Two experimental groups were administered 20 μg/mouse of MASPsyn alone and combined with 0.9% aluminum hydroxide, respectively. A total of 3 immunizations every 10-15 days were administered.
Four weeks post-infection, the blood was collected by tail-bleeding and a pool of serum from each experimental group was obtained as described above. Cytokines were measured using Mouse Inflammatory Cytokines Multi-analyte ELISArray Kit. FIG. 2 illustrates cytokine profiles of immunized mice following parasite challenge. Anti-inflammatory (IL-4 and IL-10) and proinflammatory (IFN-γ, IL-12, and IL-17) cytokines were assayed in triplicate by ELISA four weeks after the last immunization and approximately two weeks after the challenge. Each bar represents the mean value±SEM (n=4 animals per group) for each treatment.

[2] = test system: C3H/HeNsd female mice; experiment: Evaluation of the humoral immune response (serum antibody titers by ELISA after immunization); format: in vivo; conditions: immunized mice, without the aid of any additional adjuvants
Experimental: as §1
Ten days after the last immunization blood was collected by tail bleeding and serum was separated from blood by centrifugation at 2,000 rpm for 10 min. The serum antibody titers were determined by an ELISA. Human Chagasic and normal serum were also tested for antibody titers against MASPsyn.

[3] = test system: T. cruzi Y strain trypomastigotes; experiment: Challenge - parasitemia and survival of immunized mice; format: in vivo, Trypanosoma cruzi; conditions: without the aid of any additional adjuvants
Experimental: as §1
Ten days after last immunization mice were inoculated via intraperitoneal injection with 1×10^5 trypomastigote Y strain, the parasitemia and survival were monitored. The parastemia were evaluated every day for the first 12 days then every third day for a total of 21 days. FIG. 1 illustrates the resulting parasitemia and survival for each of the control and experimental groups.

Sequence: DAENPGGEVFNDNKKGLSRV (listed as Trypanosoma cruzi) [MASPsyn]
- cytokine (e.g., IL-4, IL-10, IL-12, IL-17A, and IFN-gamma) production [1]: able to stimulate
- antibody production [2]: able to stimulate
- survivability of immunized-infected mice [3]: increase survivability
